We go through 14 molecules from ChEMBL document CHEMBL1138036, “Simplified cyclic analogues of bastadin-5. Structure-activity relationships for modulation of the RyR1/FKBP12 Ca2+ channel complex” (J Med Chem, 2006).

Molecules are shown by their SMILES.

The first assay addresses RyR1/FKBP12 (Oryctolagus cuniculus). The assay is described as follows: Antagonist like activity at skeletal junction sarcoplasmic reticulum RyR1/FKBP12 complex assessed as decrease in [3H]ryanodine binding.
On to `[N-]=[N+]=Nc1cc2ccc1Oc1cc(cc(Br)c1O)CCNC(=O)CC2`, for which the IC50 came out at 63 µM.

Consider `O=C1CCNC(=O)CCc2cc(Br)c(cc2Br)Oc2cc(cc(Br)c2O)CCN1`, for which the IC50 turned out to be 47 µM.

The target is the same in the next assay. The assay is described as follows: Agonist like activity at skeletal junction sarcoplasmic reticulum RyR1/FKBP12 complex assessed as increase in [3H]ryanodine binding.
For `[N-]=[N+]=Nc1ccc(I)cc1C(=O)NCCCC[C@H]1CC(=O)NCCc2cc(Br)c(O)c(c2)Oc2cc(Br)c(cc2Br)CCC(=O)N1`, the EC50 is 6.5 µM.

As to `Nc1cc2ccc1Oc1cc(cc(Br)c1O)CCNC(=O)CCNC(=O)CC2`, the EC50 was 21 µM.

In the case of `O=C1CCNC(=O)CCc2ccc(c([N+](=O)[O-])c2)Oc2cc(cc(Br)c2O)CCN1`, the EC50 amounted to 24 µM.

Turning to `Nc1cc2ccc1Oc1cc(cc(Br)c1O)CCNC(=O)CC2`, the EC50 was found to be 33 µM.

As to `O=C1CCc2ccc(c(I)c2)Oc2cc(cc(Br)c2O)CCN1`, the EC50 was determined as 28.6 µM.

Regarding `[N-]=[N+]=Nc1ccc(I)cc1C(=O)NCCCC[C@H]1CC(=O)NCCc2cc(Br)c(O)c(c2)Oc2ccc(cc2Br)CCC(=O)N1`, the EC50 is over 100 µM.

With `COC(=O)c1cc(I)ccc1N=[N+]=[N-]`, the EC50 is over 100 µM.

Consider `O=C1CCc2ccc(c(Br)c2)Oc2cc(cc(Br)c2O)CCN1`, for which the EC50 came to 10.9 µM.

Take `[N-]=[N+]=Nc1cc2ccc1Oc1cc(cc(Br)c1O)CCNC(=O)CCNC(=O)CC2`: the EC50 stood at 20 µM.

As to `O=C1CCc2ccc(c([N+](=O)[O-])c2)Oc2cc(cc(Br)c2O)CCN1`, the EC50 was 20.9 µM.

Take `O=C1CCc2ccc(cc2)Oc2cc(cc(Br)c2O)CCN1`: the EC50 was over 100 µM.

On to `O=C1CCc2cc(Br)c(cc2Br)Oc2cc(cc(Br)c2O)CCN1`, for which the EC50 is over 100 µM.
